Series [1] is described as follows: Body weight gain of SHROB rats fed drug-supplemented chow. Type of series: in vivo, rat. Conditions: for effect on body weight gain: compared with non-treated control, FIG. 1. Here is the method: (§1) Animals: Obese spontaneously […] rats with a naturally occurring knockout of the leptin receptor (SHROB; Koletsky et al., pp. 143-158 in: Sima AAF and Shafrir (eds) Animal Models of Diabetes: A Primer, Harwood, Singapore, 2001) were used. Adult (4-5 months old) male and female SHROB were maintained essentially as described by Velliquette and Emsberger (JPET 307: 1104-1111, 2003). Briefly, animals were housed individually at a constant temperature of 21° C. on a 12:12 hours light/dark cycle. The animals were given ad libitum access to food (Teklad 8664 rat chow) and were maintained for a period of 60 days. The procedures were carried out in accordance with applicable laws and accepted guidelines for animal welfare.
(§2) Either CPSSA or captopril were dissolved in a 20% ethanol solution, chilled on ice, and were then thoroughly mixed with powdered rat chow in equivalent molar amounts of 1.107 and 0.827 gram/kg, respectively.
(§3) Eight SHROB rats (4 males, 4 females) were used in each treatment group. Animals were fed with chow supplemented with either CPSSA or captopril, or with standard (non-supplemented) chow diet, which served as a control. Measurements of body weight, food consumption and blood pressure were conducted 3 times a week for the duration of the experiment.

A short description of series [2]: Food consumption of SHROB rats fed drug-supplemented chow. The series is classed as in vivo, rat. Conditions: throughout the experiment, FIG. 2. Here is the method: as §1, §2, §3
A short description of series [3]: Systolic blood pressure of SHROB rats fed drug-supplemented chow. Type of series: in vivo, rat. The method, then:
Briefly, animals were housed individually at a constant temperature of 21° C. on a 12:12 hours light/dark cycle. […] The procedures were carried out in accordance with applicable laws and accepted guidelines for animal welfare.
as §3

The conditions of series [4]: cited from earlier work.
The conditions of series [5]: in vivo; cited from earlier work.
Where [6] appears, read: day 20, drug in chow ad libitum.
Where [7] appears, read: day 53, drug in chow ad libitum.

Here are results for 2 compounds from patent US20090209613A1, “Use of allymercaptocaptopril for treating or preventing obesity and obesity related diseases” (Yeda Researc And Development Co. Ltd. at the Weizmann …, priority 2005, published 2009).

Structures are written as SMILES.

`C=CCSSC[C@H](C)C(=O)N1CCC[C@H]1C(=O)O` [CPSSA, Allylmercaptocaptopril]: in series [1], the “effect on body weight gain” value is “effectively prevented body weight gain”. Further, the “average body weight gain” value is 0.6% in series [1] (setting [6]) and −0.1% in series [1] (setting [7]). In series [2], the food uptake entry is recorded as “no differences were observed in the food uptake”. Besides, in series [3] (FIG. 3), the “effect on blood pressure” value is on record as “substantially reduced the blood pressure”. In addition, the “average systolic blood pressure” value in series [3] (day 14) is listed as 165.6; in series [3] (day 28) it was 146.8; in series [3] (day 56), 140.3. For the same compound, the “stability in blood or plasma” value in series [4] (blood or plasma of mammals) was “stable in blood or plasma of mammals”. Besides, the “reaction with serum proteins” value in series [4] (serum proteins) was “reacts very sluggishly with serum proteins”. Besides, the blood pressure entry in series [5] is listed as “significantly decreases blood pressure”. Besides, the “serum level of insulin” value in series [5] is recorded as “reduces”. The “serum level of triglycerides” value in series [5] is reported as “reduces”.

Consider `C[C@H](CS)C(=O)N1CCC[C@H]1C(=O)O` [captopril], for which, in series [1], the “effect on body weight gain” value is given as “had no effect on body weight gain”. The figures for the “average body weight gain” value in series [1] (setting [6]) and in series [1] (setting [7]) were 7.3% and 11.8%, respectively. The food uptake entry in series [2] is on record as “no differences were observed in the food uptake”. Moreover, the entries for the “average systolic blood pressure” value in series [3] (day 14), in series [3] (day 28) and in series [3] (day 56) were 165.5, 159.3 and 159.7, respectively.
